Laboratory results from BindingDB's records for doi:10.1124/mol.107.042622 (The Johns Hopkins University, 2008).

Molecular target: DNA-(apurinic or apyrimidinic site) endonuclease (Homo sapiens, UniProt P27695)
Assay: High-Throughput Screening and IC50 Determinations
Details: pH 7.5; 22 °C
Procedure: The screening assay was performed using 384-well microtiter plate first spotted with test compounds. Then Ape1 in reaction buffer was added to each well. The reaction was initiated through the addition of substrate. After incubation, the final fluorescence was measured using a FLUOstar Optima plate reader (BMG Labtech GmbH, Offenburg, Germany) at excitation and emission wavelengths of 485 and 520 nm, respectively. IC50 analyses were carried out on the best hits by first plating 10-fold dilutions of each inhibitor onto 384-well plates. Using the initial rate values, percentage activity was calculated for each sample relative to a negative (DMSO only) control. The data were fitted to a sigmoidal dose-response model using Prism software (GraphPad Software, San Diego, CA).

DNA-(apurinic or apyrimidinic site) endonuclease, sequence (P27695 whole entry): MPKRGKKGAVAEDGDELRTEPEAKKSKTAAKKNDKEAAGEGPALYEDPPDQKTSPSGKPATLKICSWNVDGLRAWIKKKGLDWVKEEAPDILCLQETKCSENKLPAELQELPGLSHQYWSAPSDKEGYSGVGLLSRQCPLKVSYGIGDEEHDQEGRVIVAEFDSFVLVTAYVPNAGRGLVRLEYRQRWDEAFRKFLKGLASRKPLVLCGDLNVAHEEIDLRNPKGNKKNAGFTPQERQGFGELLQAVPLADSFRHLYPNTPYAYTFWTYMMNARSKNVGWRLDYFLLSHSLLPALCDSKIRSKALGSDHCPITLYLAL

| Structure (SMILES) | IC50 [nM] | Ki [nM] |
| --- | --- | --- |
| O=C(O)c1cc[c]([Sb](=[O])([OH])[OH])cc1[N+](=O)[O-] [4-[dihydroxy(oxo)--stibanyl]-2-nitrobenzoic acid] | 4 | 19 |
| O=C(O)/C=C/c1ccc[c]([Sb](=[O])([OH])[OH])c1 [(2E)-3-{3-[dihydroxy(oxo)--stibanyl]phenyl}prop-2-enoic acid] | 200 | – |
| O=C(Nc1cc[c]([Sb](=[O])([OH])[OH])cc1)c1ccccc1 [N-{4-[dihydroxy(oxo)--stibanyl]phenyl}benzamide] | 300 | – |
| CCOC(=O)CCCc1cc[c]([Sb](=[O])([OH])[OH])cc1 [ethyl 4-{4-[dihydroxy(oxo)--stibanyl]phenyl}butanoate] | 17 | 36 |
